According to patent US12156880B2, “Heterocyclic RIP1 kinase inhibitors” (Rigel Pharmaceuticals, Inc., priority 2021, dated 2024):
pIC50: −log10 of the molar value.

Key:
L929 cells = experiment: L929 cell necroptosis assay (TNFa + zVAD, CellTiter-Glo recovery); assay type: cell-based, murine; set-up: L929-CTG-recovery, L929, TNFa + zVAD (IC50): unit not given here; conditions: TNFa 2 ng/mL + zVAD-fmk; for pIC50: Mus musculus, L929, 18 h, read-out: L929-CTG-recovery, L929, TNFa + zVAD (IC50)
Method: (§1) In this example, U937 and L929 cells were exposed to compounds of the present disclosure and a cell necroptosis assay was conducted to evaluate the compounds' activity against human RIP1 and murine RIP1.
(§2) U937 and L929 cells were obtained from the American Type Culture Collection (Manassas, VA, USA). Both cells were maintained in logarithmic growth phase in complete RPMI 1640 media (Sigma, ST Louis, MO, USA) supplemented with 10% fetal bovine serum (Sigma, ST Louis, MO, USA) at 37° C. with 5% CO2. For necroptosis assay, L929 cells were plated for 18 h in 100 μL/well medium at 10K cells/well in Costar 96-well black clear-bottom plates (Fisher Scientific, Hampton, NH, USA); U937 cells were plated on the day of the assay in 50 μL/well medium containing 60 uM zVAD-fmk (Lonza, Basel, Switzerland) at 50K cells/well. Medium from L929 cells were removed from the 96-well plates and replaced with 50 μL/well new medium containing 40 uM zVAD-fmk. Each compound of the present disclosure evaluated in this example was serially diluted in DMSO from 2.5 mM in 4-fold dilutions, and then diluted 1:125 in complete medium. 50 μL/well 2× of the compound was then added to the cells in the plates. The cells were pre-incubated with the compound for 1 hour at 37° C. with 5% CO2 and before addition of 10 μL/well 11×TNFa (Peprotech, Rocky Hill, NJ, USA) to give a final concentration of 2 ng/mL for TNFa. The relative amount of necroptosis cells was determined by luminescent using a Wallac Victor2 Luminometer (PerkinElmer, Waltham, MA, USA) and a CellTiter-Glo® Luminescent Cell Viability Reagent Assay (Promega, Madison, WI, USA) added per manufacturer instructions after 18 hours of TNFa stimulation at 37° C. with 5% CO2. This example establishes that embodiments of the compounds described herein have unexpectedly potent activity against human RIP1 and murine RIP1, which allows their assessment in in vivo mouse models of disease.

U937 cells = experiment: U937 cell necroptosis assay (TNFa + zVAD, CellTiter-Glo recovery); assay type: cell-based; conditions: Homo sapiens, U-937, 18 h, TNFa 2 ng/mL + zVAD-fmk, read-out: U937 Zvad TNF CTG Recovery, U937, TNFa + zVAD (IC50)
Method: as §1, §2

RIPK1 = target: T1, RIPK1 (Homo sapiens, UniProt Q13546); experiment: RIPK1 ADP-Glo biochemical kinase assay; conditions: read-out: RIPK1 ADP-Glo Kinase (IC50)
T1 sequence (Q13546 1-671): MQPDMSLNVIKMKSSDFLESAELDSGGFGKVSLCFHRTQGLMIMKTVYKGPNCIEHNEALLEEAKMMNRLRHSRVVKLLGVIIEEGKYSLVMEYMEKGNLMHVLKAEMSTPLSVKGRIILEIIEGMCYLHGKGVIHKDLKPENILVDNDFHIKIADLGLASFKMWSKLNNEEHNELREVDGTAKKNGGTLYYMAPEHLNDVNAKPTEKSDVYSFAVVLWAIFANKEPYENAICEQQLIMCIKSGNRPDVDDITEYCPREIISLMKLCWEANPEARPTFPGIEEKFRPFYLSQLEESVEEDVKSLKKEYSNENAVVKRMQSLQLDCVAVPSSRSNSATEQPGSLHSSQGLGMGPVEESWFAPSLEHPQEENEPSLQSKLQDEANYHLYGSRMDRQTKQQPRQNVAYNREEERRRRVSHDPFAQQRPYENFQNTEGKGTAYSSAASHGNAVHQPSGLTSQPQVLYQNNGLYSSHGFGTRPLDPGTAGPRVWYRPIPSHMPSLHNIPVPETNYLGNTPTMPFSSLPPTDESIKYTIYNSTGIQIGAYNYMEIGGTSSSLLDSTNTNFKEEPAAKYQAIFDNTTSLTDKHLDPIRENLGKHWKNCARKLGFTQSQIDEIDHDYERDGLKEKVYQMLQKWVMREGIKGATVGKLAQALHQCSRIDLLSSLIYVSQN
Method: In this example, compounds of the disclosure were evaluated using a biochemical assay using the ADP-Glo™ technology.
ADP-Glo™ (Promega, Madison, WI, USA) reagents were thawed at ambient temperature. Kinase Detection Reagent was prepared by mixing kinase detection buffer with the lyophilized kinase detection substrate.
A […] stock volume of 5× Reaction Kinase Buffer was made by mixing 1000 μl of 1M MgCl2, 500 μl of 1M Tris-HCL pH7.4, 0.5 mg/ml (25 mg) of BSA, and 3475 μl of distilled H2O. A 3 ml 2× working stock volume of Reaction Kinase Buffer was made containing a final concentration of 100 μM DTT and 4 mM MnCl2.
Components of RIPK1 enzyme (Rigel Pharmaceuticals, South San Francisco, CA, USA) were thawed on ice. Diluted RIPK1 was prepared in 1× Kinase Reaction Buffer (diluted from 2× buffer) to 31 ng/well.
1.0 ul of diluted compound was added to a 384 well plate in duplicate. […] The final reaction volume was 5.0 μl.
The plate was quickly centrifuged and the reaction was incubated at 30° C. for 30 minutes. Adding 5 μl of ADP-Glo™ terminated the reaction. The plate was quickly centrifuged and the reaction was incubated at room temperature for 40 minutes. Kinase Detection Reagent was then added and incubated at room temperature for 30 minutes. The relative light unit (RLU) of kinase reaction was determined by luminescent (Luminescence 0.1 s) using a Wallac Victor2 Luminometer (PerkinElmer, Waltham, MA, USA).

| Structure (SMILES) | pIC50 (L929 cells) | pIC50 (U937 cells) | pIC50 (RIPK1) | L929-CTG-recovery, L929, TNFa + zVAD (IC50) (L929 cells; 18 hours) |
| --- | --- | --- | --- | --- |
| CN1C(=O)[C@@H](NC(=O)n2cc(Cc3cccc(C(F)(F)F)n3)cn2)COc2ccc(C#CC(C)(C)O)cc21 [I-9, (S)—N-(7-(3-Hydroxy-3-methylbut-1-yn-1-yl)-5-methyl-4-oxo-2,3,4,5-tetrahydrobenzo[b][1,4]oxazepin-3-yl)-4-((6-(trifluoromethyl)pyridin-2-yl)methyl)-1H-pyrazole-1-carboxamide] | 5.57 | 6.79 | 7.19 | – |
| Cc1cccc(Cc2ccnc(C(=O)N[C@H]3COc4ccc(C#CC(C)(C)O)cc4N(C)C3=O)c2)n1 [I-11, (S)—N-(7-(3-hydroxy-3-methylbut-1-yn-1-yl)-5-methyl-4-oxo-2,3,4,5-tetrahydrobenzo[b][1,4]oxazepin-3-yl)-4-((6-methylpyridin-2-yl)methyl)picolinamide] | 5.13 | 6.90 | 6.92 | – |
| Cc1cccc(Cc2ccnc(C(=O)N[C@H]3COc4ccc(C#CC5(O)COC5)cc4N(C)C3=O)c2)n1 [I-12, (S)—N-(7-((3-hydroxyoxetan-3-yl)ethynyl)-5-methyl-4-oxo-2,3,4,5-tetrahydrobenzo[b][1,4]oxazepin-3-yl)-4-((6-methylpyridin-2-yl)methyl)picolinamide] | 5.46 | 7.13 | 7.60 | – |
| CN1C(=O)[C@@H](NC(=O)c2cc(Cc3cccc(F)n3)ccn2)COc2ccc(C#CC(C)(C)O)cc21 [I-13, (S)-4-((6-fluoropyridin-2-yl)methyl)-N-(7-(3-hydroxy-3-methylbut-1-yn-1-yl)-5-methyl-4-oxo-2,3,4,5-tetrahydrobenzo[b][1,4]oxazepin-3-yl)picolinamide] | 5.88 | 7.38 | 7.67 | – |
| CN1C(=O)[C@@H](NC(=O)n2cc(Cc3cccnc3)cn2)COc2ccc(C#CC(C)(C)O)cc21 [I-14, (S)—N-(7-(3-Hydroxy-3-methylbut-1-yn-1-yl)-5-methyl-4-oxo-2,3,4,5-tetrahydrobenzo[b][1,4]oxazepin-3-yl)-4-(pyridin-3-ylmethyl)-1H-pyrazole-1-carboxamide] | 5.93 | 7.84 | 7.75 | – |
| Cc1ccc(Cc2cnn(C(=O)N[C@H]3COc4ccc(C#CC(C)(C)O)cc4N(C)C3=O)c2)cn1 [I-15, (S)—N-(7-(3-Hydroxy-3-methylbut-1-yn-1-yl)-5-methyl-4-oxo-2,3,4,5-tetrahydrobenzo[b][1,4]oxazepin-3-yl)-4-((6-methylpyridin-3-yl)methyl)-1H-pyrazole-1-carboxamide] | 5.77 | 7.56 | 7.71 | – |
| CN1C(=O)[C@@H](NC(=O)n2cc(Cc3ccc(F)nc3)cn2)COc2ccc(C#CC(C)(C)O)cc21 [I-16, (S)-4-((6-Fluoropyridin-3-yl)methyl)-N-(7-(3-hydroxy-3-methylbut-1-yn-1-yl)-5-methyl-4-oxo-2,3,4,5-tetrahydrobenzo[b][1,4]oxazepin-3-yl)-1H-pyrazole-1-carboxamide] | 5.62 | 7.76 | 7.42 | – |
| Cc1ccc(Cc2cnn(C(=O)N[C@H]3COc4ccc(Br)cc4N(C)C3=O)c2)cn1 [I-23, (S)—N-(7-Bromo-5-methyl-4-oxo-2,3,4,5-tetrahydrobenzo[b][1,4]oxazepin-3-yl)-4-((6-methylpyridin-3-yl)methyl)-1H-pyrazole-1-carboxamide] | – | 7.09 | 7.59 | 5000 |
| CN1C(=O)[C@@H](NC(=O)c2cc(Cc3cccnc3F)ccn2)COc2ccc(C#CC3(O)COC3)cc21 [I-26, (S)-4-((2-fluoropyridin-3-yl)methyl)-N-(7-((3-hydroxyoxetan-3-yl)ethynyl)-5-methyl-4-oxo-2,3,4,5-tetrahydrobenzo[b][1,4]oxazepin-3-yl)picolinamide] | 6.39 | 8.28 | 7.45 | – |
| CN1C(=O)[C@@H](NC(=O)c2cc(Cc3cccnc3F)ccn2)COc2ccc(C#CC(C)(C)O)cc21 [I-27, (S)-4-((2-fluoropyridin-3-yl)methyl)-N-(7-(3-hydroxy-3-methylbut-1-yn-1-yl)-5-methyl-4-oxo-2,3,4,5-tetrahydrobenzo[b][1,4]oxazepin-3-yl)picolinamide] | 6.21 | 8.01 | 7.71 | – |
| CN1C(=O)[C@@H](NC(=O)n2cc(Cc3ccncc3)cn2)COc2ccc(C#CC(C)(C)O)cc21 [I-29, (S)—N-(7-(3-Hydroxy-3-methylbut-1-yn-1-yl)-5-methyl-4-oxo-2,3,4,5-tetrahydrobenzo[b][1,4]oxazepin-3-yl)-4-(pyridin-4-ylmethyl)-1H-pyrazole-1-carboxamide] | 5.76 | 7.33 | 7.16 | – |
| CN1C(=O)[C@@H](NC(=O)n2cc(Cc3cccc(F)n3)cn2)COc2ccc(C#CC3(O)COC3)cc21 [I-32, (S)-4-((6-Fluoropyridin-2-yl)methyl)-N-(7-((3-hydroxyoxetan-3-yl)ethynyl)-5-methyl-4-oxo-2,3,4,5-tetrahydrobenzo[b][1,4]oxazepin-3-yl)-1H-pyrazole-1-carboxamide] | 6.17 | 7.79 | 7.79 | – |
| CN1C(=O)[C@@H](NC(=O)n2cc(Cc3cccc(F)n3)cn2)COc2ccc(C#CC3(O)CCOCC3)cc21 [I-33, (S)-4-((6-Fluoropyridin-2-yl)methyl)-N-(7-((4-hydroxytetrahydro-2H-pyran-4-yl)ethynyl)-5-methyl-4-oxo-2,3,4,5-tetrahydrobenzo[b][1,4]oxazepin-3-yl)-1H-pyrazole-1-carboxamide] | 5.95 | 7.94 | 7.77 | – |
| CN1C(=O)[C@@H](NC(=O)n2cc(Cc3cccc(F)n3)cn2)COc2ccc(C#CC3CCOCC3)cc21 [I-34, (S)-4-((6-Fluoropyridin-2-yl)methyl)-N-(5-methyl-4-oxo-7-((tetrahydro-2H-pyran-4-yl)ethynyl)-2,3,4,5-tetrahydrobenzo[b][1,4]oxazepin-3-yl)-1H-pyrazole-1-carboxamide] | 7.17 | 8.89 | 7.82 | – |
| CN1C(=O)[C@@H](NC(=O)n2cc(Cc3cccc(F)n3)cn2)CCc2ccc(Br)cc21 [I-35, (S)—N-(8-Bromo-1-methyl-2-oxo-2,3,4,5-tetrahydro-1H-benzo[b]azepin-3-yl)-4-((6-fluoropyridin-2-yl)methyl)-1H-pyrazole-1-carboxamide] | 5.16 | 7.15 | 7.71 | – |
